Measurements reported in the supplement of paper PMC11962398.

Columns and labels:
BI-2493 [1] = compound: T1, C[C@H]1CNCCN1c1nccc(-c2noc3c2CCC[C@@]32CCCc3sc(N)c(C#N)c32)n1 [BI-2493]; conditions: 5 days
Procedure: (§1)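 PRISM pooled barcoded cancer cell line viability screen (Broad Institute) with BI-2493 at 8 doses in threefold dilutions from 0.00457 to 10 µmol/L, 5-day treatment; curves fitted per cell line. IC50 is undefined (placeholder) for resistant lines. AUC is capped at 1, and sensitivity is reported as 1 − AUC.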

BI-2493 [2] = compound: T1, BI-2493; assay: 1 - AUC of viability dose-response curve (sensitivity) (fraction); higher = more sensitive; conditions: 5 days
Procedure: as §1

Test System | IC50 of cell viability (BI-2493 [1]) [µM] | 1 - AUC of viability dose-response curve (BI-2493 [2])
SNU201_CENTRAL_NERVOUS_SYSTEM | > 10 | 0.0868
SNU213_PANCREAS | 5.63 | 0.106
SNU216_STOMACH | 8.63 | 0.0735
SNU245_BILIARY_TRACT | 0.731 | 0.381
SNU308_BILIARY_TRACT | 8.63 | 0.0812
SNU398_LIVER | 3.55 | 0.176
SNU407_LARGE_INTESTINE | 1.21 | 0.3
SNU410_PANCREAS | 9.47 | 0.0692
SNU423_LIVER | 3.81 | 0.152
SNU449_LIVER | 7.3 | 0.0578
SNU466_CENTRAL_NERVOUS_SYSTEM | 2.75 | 0.218
SNU489_CENTRAL_NERVOUS_SYSTEM | 4.14 | 0.103
SNU638_STOMACH | 8.32 | 0.119
SNU668_STOMACH | 6.46 | 0.234
SNU685_ENDOMETRIUM | 9.5 | 0.0102
SNU719_STOMACH | 9.46 | 0.00913
SNU761_LIVER | 2.4 | 0.297
SNU840_OVARY | 7.7 | 0.0623
SNU869_BILIARY_TRACT | 2.14 | 0.279
SNU886_LIVER | 5.03 | 0.211
SNU899_UPPER_AERODIGESTIVE_TRACT | 4.32 | 0.157
SNU1041_UPPER_AERODIGESTIVE_TRACT | 9.15 | 0.019
SNU1066_UPPER_AERODIGESTIVE_TRACT | 6.03 | 0.0923
SNU1076_UPPER_AERODIGESTIVE_TRACT | 3.84 | 0.104

Test System | IC50 of cell viability (BI-2493 [1]) [µM] | 1 - AUC of viability dose-response curve (BI-2493 [2])
SNU1077_ENDOMETRIUM | 8.81 | 0.0934
SNU1105_CENTRAL_NERVOUS_SYSTEM | 4.12 | 0.157
SNU1196_BILIARY_TRACT | 0.361 | 0.496
SNU1214_UPPER_AERODIGESTIVE_TRACT | 0.175 | 0.482
SNU1544_LARGE_INTESTINE | 2.68 | 0.203
SNU2372_BREAST | 6.37 | 0.0682
SNUC2A_LARGE_INTESTINE | > 10 | 0.0882
SNUC4_LARGE_INTESTINE | 5.72 | 0.162
SQ1_LUNG | 3.68 | 0.153
SR786_HAEMATOPOIETIC_AND_LYMPHOID_TISSUE | 7.44 | 0.0498
SSP25_BILIARY_TRACT | 8.5 | 0.11
STM9101_SOFT_TISSUE | > 10 | 0.0387
SUDHL1_HAEMATOPOIETIC_AND_LYMPHOID_TISSUE | 4.67 | 0.14
SUDHL8_HAEMATOPOIETIC_AND_LYMPHOID_TISSUE | 9.1 | 0.0165
SUIT2_PANCREAS | 4.96 | 0.123
SUM149PT_BREAST | 3.94 | 0.168
SUM159PT_BREAST | 7.31 | 0.064
SUPB15_HAEMATOPOIETIC_AND_LYMPHOID_TISSUE | 3.13 | 0.149
SUPT11_HAEMATOPOIETIC_AND_LYMPHOID_TISSUE | 5.2 | 0.0681
SUSA_TESTIS | 1.09 | 0.243
SW13_ADRENAL_CORTEX | 4.77 | 0.0973
SW156_KIDNEY | 9.51 | 0.0358
SW579_THYROID | 3.16 | 0.133
SW620_LARGE_INTESTINE | 1.1 | 0.313

Test System | IC50 of cell viability (BI-2493 [1]) [µM] | 1 - AUC of viability dose-response curve (BI-2493 [2])
SW626_LARGE_INTESTINE | 4.08 | 0.124
SW756_CERVIX | 5.46 | 0.14
SW780_URINARY_TRACT | 3.46 | 0.22
SW837_LARGE_INTESTINE | 5.95 | 0.0901
SW900_LUNG | 8.99 | 0.115
SW948_LARGE_INTESTINE | 7.49 | 0.167
SW954_CERVIX | 3.72 | 0.117
SW1088_CENTRAL_NERVOUS_SYSTEM | 8.8 | 0.159
SW1116_LARGE_INTESTINE | 2.37 | 0.214
SW1353_BONE | > 10 | 0.032
SW1463_LARGE_INTESTINE | 4.74 | 0.177
SW1573_LUNG | 7.72 | 0.108
SW1710_URINARY_TRACT | 7.21 | 0.0685
SW1783_CENTRAL_NERVOUS_SYSTEM | 7.49 | 0.0474
SW1990_PANCREAS | 0.926 | 0.324
T3M5_THYROID | 4.56 | 0.162
T3M10_LUNG | 5.96 | 0.0884
T24_URINARY_TRACT | > 10 | 0.047
T47D_BREAST | 4.07 | 0.0937
TALL1_HAEMATOPOIETIC_AND_LYMPHOID_TISSUE | 6.69 | 0.0755
TANOUE_HAEMATOPOIETIC_AND_LYMPHOID_TISSUE | 9.36 | 0.0128
TASK1_CENTRAL_NERVOUS_SYSTEM | 7.76 | 0.0438
TC32_BONE | 8.86 | 0.0484
TC71_BONE | 9.44 | 0.0115
